Source: article PMC9828437, “Novel hybrids of thiazolidinedione-1,3,4-oxadiazole derivatives: synthesis, molecular docking, MD simulations, ADMET study, in vitro, and in vivo anti-diabetic assessment” (RSC Advances, 2023)
Where “and” joins values, the source holds several entries; their conditions need not be identical. Equal values may be shown once.

Tests used:
α-amylase = assay: In vitro α-amylase inhibitory assay; type: biochemical; conditions: mean of three replicates ±SD
Method: The reaction mixture contains 20 μL of α-amylase solution (0.5 mg mL^−1) and 200 μL of sodium phosphate buffer (pH 6.9, 0.02 M). Test samples ([…]) were added (250 μL) to the reaction mixture following which; incubation was carried out for 10 min at room temperature. This was accompanied by the addition of 200 μL of 1% starch solution, and further incubated for 10 min at 25 °C. By adding 400 μL of dinitrosalicylic acid (DNS) reagent, the reaction was terminated. Lastly, it was incubated in water (70 °C, 5 min). The absorbance was recorded using an ELISA microplate reader at 540 nm. […] All the experiments were performed in triplicates. It was the reaction mixture without the test sample that served as the control for the test.[31]
The percent inhibition was calculated as:% Inhibition = [(C − T)/C] × 100C – absorbance of control, T – absorbance of sample.

α-glucosidase = assay: In vitro α-glycosidase inhibitory assay; type: biochemical; conditions: mean of three replicates ±SD
Method: The reaction mixture contains 50 μL of 0.1 M phosphate buffer (pH = 6.8), 10 μL of α-glucosidase enzyme and 20 μL of test samples (10–50 μg mL^−1) were taken in a 96-well plate and incubated at 37 °C for 15 min. Furthermore, 20 μL of p-nitrophenyl D-glucopyranoside solution was added as a substrate and incubated for an additional 20 min at 37 °C. 50 μL of 0.1 M Na2CO3 is added to terminate the reaction. The liberated p-nitrophenol was measured at 405 nm with an Elisa microplate reader. […] All the experiments were performed in triplicates.[31]
The inhibition was calculated in percentage as:% Inhibition = [(C − T)/C] × 100C – absorbance of control, T – absorbance of sample.

Drosophila melanogaster = assay: In vivo antihyperglycemic test in Drosophila on high sugar diet; conditions: for significance of antihyperglycemic activity: Drosophila on HSD, 18 μg g^−1 feed; for reduction in glucose levels, female flies / percent reduction in glucose levels, male flies: HSD with 18 μg g^−1 feed, 10 days
Method: In this study, Oregon-R flies were obtained directly from the Nitte University, Drosophila Lab, Mangalore, India, and maintained on a wheat cream-agar medium with a relative humidity of 65–70%, and a light–dark cycle of twelve hours each. Separation of males and females of one-day-old flies were cultured in, food containing high sugar diet (HSD), and different groups of food containing HSD with uniform concentrations (18 μg g^−1 feed) of the compounds 5a, 5b, 5j for 10 days. Acarbose was administered as a positive control. Twenty flies were taken and they were homogenized in 0.2 mL of ice-cold phosphate buffer saline. (pH 7.4). Homogenized samples were centrifuged at 10 000g for 15 min at 4 °C. All fly homogenates were tested for glucose concentration using the manufacturer's protocol (Agape Diagnostics Ltd, India). Throughout the experiments, the control group was maintained in the same conditions as that of other groups except for HSD and compounds. All experiments were carried out in triplicates and the results were expressed in percentages respective to the control group.[32]
The results of all the experiments (n = 3) were analyzed and expressed as mean ± standard deviation (SD). The Student's t-test was performed using GraphPad Prism software (GraphPad Software Inc., CA, USA). p values ≤ 0.05 were considered as statistically significant (*p ≤ 0.05; *p ≤ 0.01; **p ≤ 0.001).

NIH/3T3 cells = assay: MTT cytotoxicity assay; type: cell-based; conditions: 100 μmol, 24 h incubation
Method: The cytotoxic concentration of synthetic compounds (5a–5j) was evaluated by MTT assay. A standard MTT assay was performed with various concentrations of synthesized compounds against NIH/3T3 cells using a 96-well microplate reader at 570 nm. The cell lines were cultured in DMEM, supplemented with 10% FBS in flasks, and incubated at 37 °C with 5% CO2 in DMEM medium with streptomycin and penicillin (100 IU mL^−1) at the appropriate concentrations. The 96-well plates with media were incubated. After overnight incubation, each plate was discarded and fresh medium was added to each well with varying concentrations (5 μM, 10 μM, 25 μM, 50 μM, 100 μM) of test samples. Then, 200 μL of MTT (0.5 mg mL^−1) were put in each well and further incubated for four hours. Afterward, DMSO (100 μL) was transferred into each microplate well. The absorbance was measured at 570 nm to determine how much MTT was reduced to formazan in the cells.

Compound	IC50 (α-amylase)	IC50 (α-glucosidase) [µM]	significance of antihyperglycemic activity (Drosophila melanogaster)	reduction in glucose levels, female flies (Drosophila melanogaster; whole-body homogenate) [%]	percent reduction in glucose levels, male flies (Drosophila melanogaster; whole-body homogenate) [%]	reduction in glucose level (Drosophila melanogaster; HSD along with acarbose, whole-body homogenate, sex not stated)	melting point [°C]	percentage cell toxicity (inhibition of cellular viability) (NIH/3T3 cells) [%]
3-((5-(4-Aminophenyl)-1,3,4-oxadiazol-2-yl)methyl)thiazolidine-2,4-dioneone [Compound 5c]	22.6 µM and 34.1 µM	27.25 ± 0.23						
3-((5-(4-Bromophenyl)-1,3,4-oxadiazol-2-yl)methyl)thiazolidine-2,4-dione [Compound 5b]	34.1 µM and 22.6 µM	22.25 ± 0.22	significant	7.03	28.4			
C[C@H]1O[C@H](O[C@H]2[C@H](O)[C@@H](O)[C@@H](O[C@H]3[C@H](O)[C@@H](O)C(O)O[C@@H]3CO)O[C@@H]2CO)[C@H](O)[C@@H](O)[C@@H]1N[C@H]1C=C(CO)[C@@H](O)[C@H](O)[C@H]1O (stereo partly shown) [Acarbose, reference compound]						about 62%		
O=C1CSC(=O)N1Cc1nnc(-c2ccc(Cl)cc2Cl)o1 [Compound 5a, 3-((5-(2,4-Dichlorophenyl)-1,3,4-oxadiazol-2-yl)methyl)thiazolidine-2,4-dione]	18.6 ± 0.22 µM	17.6 ± 0.19	insignificant	12.1	27.7		210 to 212	
O=C1CSC(=O)N1Cc1nnc(-c2ccc(O)cc2)o1 [Compound 5d, 3-((5-(4-Hydroxyphenyl)-1,3,4-oxadiazol-2-yl)methyl)thiazolidine-2,4-dione]	55.4 ± 0.66 µM	45.3 ± 0.79					192 to 194	87
O=C1CSC(=O)N1Cc1nnc(-c2ccccc2)o1 [Compound 5e, 3-((5-Phenyl-1,3,4-oxadiazol-2-yl)methyl)thiazolidine-2,4-dione]	32.4 ± 0.46 µM	33.5 ± 0.45					215 to 217	
COc1ccc(-c2nnc(CN3C(=O)CSC3=O)o2)cc1 [Compound 5f, 3-((5-(4-Methoxyphenyl)-1,3,4-oxadiazol-2-yl)methyl)thiazolidine-2,4-dione]	39.2 ± 0.52 µM	51.3 ± 0.83					178 to 180	
O=C1CSC(=O)N1Cc1nnc(-c2ccc(Cl)cc2)o1 [Compound 5g, 3-((5-(4-Chlorophenyl)-1,3,4-oxadiazol-2-yl)methyl)thiazolidine-2,4-dione]	28.9 ± 0.36 µM	27.25 ± 0.24					172 to 174	
O=C1CSC(=O)N1Cc1nnc(-c2ccc([N+](=O)[O-])cc2Cl)o1 [Compound 5h, 3-((5-(2-Chloro-4-nitrophenyl)-1,3,4-oxadiazol-2-yl)methyl)thiazolidine-2,4-dione]	23.2 ± 0.31 µM	28.2 ± 0.31					161 to 163	
O=C1CSC(=O)N1Cc1nnc(-c2ccc([N+](=O)[O-])cc2)o1 [Compound 5i, 3-((5-(4-Nitrophenyl)-1,3,4-oxadiazol-2-yl)methyl)thiazolidine-2,4-dione]	21.1 ± 0.23 µM	25.2 ± 0.28					153 to 155	
O=C1CSC(=O)N1Cc1nnc(-c2ccc(O)cc2O)o1 [Compound 5j, 3-((5-(2,4-Dihydroxyphenyl)-1,3,4-oxadiazol-2-yl)methyl)thiazolidine-2,4-dione]	18.4 ± 0.21 µM	17.2 ± 0.22	significant	37	29.05		204 to 206	83
